# According to patent US8809377B2, “Deubiquitinase inhibitors and methods for use of the same” (The Regents of the University of Michigan, priority 2010, dated 2014):
# How the values were obtained:
# DUB activity = assay: Western / HA-UbVS labeling of DUB activity in intact cells; assay type: cell-based
# Experimental: (§1) To assay for changes in activity of cellular deubiquitinase enzymes, leukemic cells were lysed in DUB buffer (50 mM Tris pH 7.4, 5 mM MgCl2, 150 mM NaCl) for 10 min at 4° C. The lysates were centrifuged at 20,000 RCF for 10 min and the supernatant was used for DUB labeling. Equal amounts of lysate were incubated with 500 ng of HA-UbVs for 1 hr at room temperature, followed by boiling in reducing sample buffer and resolving by SDS-PAGE. HA immunoblotting was used to detect DUB labeling.
# as §1, with “Z138 and HEK293” for “leukemic”, “RFC” for “RCF”, “SDS-PAGE. After protein transfer to nitrocellulose membranes,” for “SDS-PAGE.”
# (§2) Cancer Res, 2010. 70(22): p. […] Blood, 2011. 117(11): p. […] Biochem Pharmacol, 2011. 82(4): p. […] Blood, 2007. 109(8): p. 3470-8.
# pStat5 = assay: Western blot of pStat5; assay type: cell-based; conditions: BV-173 cells, 5 μM, 1 or 2 hours
# Experimental: (§3) Total cell lysates were prepared by boiling and sonicating cell pellets in 1× Laemmli reducing sample buffer. To prepare detergent soluble and insoluble fractions, cells were lysed in cold isotonic lysis buffer [10 mM Tris-HCl (pH 7.5), 0.5% Triton X-100, 150 mM NaCl along with Mini-Complete and PhosSTOP] for 15 min on ice and centrifuged 10 min at 20,000 RCF. The clarified supernatant was used as the detergent soluble cell fraction. The residual pellet was washed and extracted in Laemmli reducing sample buffer and briefly sonicated to derive the detergent insoluble fraction. Equal volumes of cellular lysate or equal protein amounts were electrophoresed on SDS-PAGE gels and transferred to nitrocellulose membranes (Whatmann, Dassel, Germany). Proteins were detected by immunoblotting.
# as §2
# Mcl1 = assay: Western blot of Mcl-1 levels; assay type: cell-based
# Experimental: as §3
# Whole cell lysates were prepared by boiling and sonicating the cell pellets in 1× Laemmli reducing sample buffer. To prepare detergent soluble and insoluble fractions, cells were lysed in cold isotonic lysis buffer [10 mM Tris-HCl (pH 7.5), 0.5% Triton X-100, 150 mM NaCl along with Mini-Complete and PhosSTOP] for 15 min on ice and centrifuged 10 minutes at 20,000 RCF. The clarified supernatant was used as a source of the detergent soluble cell fraction. The detergent insoluble fraction was extracted by the sonication of residual pellet in equal volumes of boiling 1× Laemmli reducing sample buffer. […]
# Murine norovirus (MNV) = assay: Murine norovirus plaque assay; assay type: cell-based; conditions: Norwalk virus
# Experimental: Viral titers were determined by plaque assay.
# Cells were treated with IFN-β as a positive anti-viral control.
# [1] = tested on: Vesicular Stomatitis Virus (VSV); assay type: cell-based
# USP14 = biological target: T1, USP14 (Homo sapiens, UniProt P54578); assay: HA-UbVs labeling of USP14; assay type: cell-based; conditions: Z138 cells, 1, 5 or 10 μM, 1 hour
# T1 construct: endogenous in cells; host or cells: Z138
# Experimental: as §1, with “Z138 and HEK293” for “leukemic”, “RFC” for “RCF”, “SDS-PAGE. After protein transfer to nitrocellulose membranes,” for “SDS-PAGE.”
# (§4) Hemagglutinin-tagged ubiquitin vinyl methyl sulfone (HA-UbVs) acts as a DUB suicide substrate, forming a covalent adduct with active DUB enzymes. Specific cellular DUBs can be identified by anti-HA blotting, as previously shown in various cell types. Changes in specific DUB activities are measurable by monitoring HA-labeling in lysates from control and treated cells. Z138 cells were treated with WP1130 at 1, 5, or 10 μM or AG490 at 250 μM for 1 hours and lysed. 20 μg of clarified supernatant was incubated with 200 nM of HA-UbVS for 1 hr at 37° C. […] An in vitro analysis using cell lysates was performed to investigate direct DUB inhibition by WP1130. Briefly, untreated Z138 cell lysates were incubated with 5 μM WP1130 or vehicle alone for one hour at 37° C., followed by labeling with HA-UbVs.
# UCH37 = biological target: T2, UCH37 (Homo sapiens, UniProt Q9Y5K5); assay: HA-UbVs labeling of UCH37; assay type: cell-based; conditions: Z138 cells, 1, 5 or 10 μM, 1 hour
# T2 construct: endogenous in cells; host or cells: Z138
# Experimental: as §1, with “Z138 and HEK293” for “leukemic”, “RFC” for “RCF”, “SDS-PAGE. After protein transfer to nitrocellulose membranes,” for “SDS-PAGE.”
# as §4
# Hsp70 = Hsp70 immunoblot; assay type: cell-based; conditions: CML cells
# La Crosse virus (LaCV) = assay: La Crosse virus plaque assay; conditions: human neurons (Be2-c), 5 μM, 30 min pre-treatment
# [2] = tested on: Encephalomyocarditis virus; assay: Encephalomyocarditis virus plaque assay; conditions: 5 μM, 30 min pre-treatment, listed as HWP1130
# T2 sequence (Q9Y5K5 whole entry): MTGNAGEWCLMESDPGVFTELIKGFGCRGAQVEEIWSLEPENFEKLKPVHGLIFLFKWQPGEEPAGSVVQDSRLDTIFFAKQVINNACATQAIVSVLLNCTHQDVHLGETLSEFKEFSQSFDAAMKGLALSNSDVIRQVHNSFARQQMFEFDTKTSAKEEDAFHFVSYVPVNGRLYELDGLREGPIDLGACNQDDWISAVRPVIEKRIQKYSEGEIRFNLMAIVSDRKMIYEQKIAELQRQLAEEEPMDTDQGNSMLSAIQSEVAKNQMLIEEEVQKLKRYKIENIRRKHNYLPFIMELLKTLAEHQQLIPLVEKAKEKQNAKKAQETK
# T1 sequence (P54578 whole entry): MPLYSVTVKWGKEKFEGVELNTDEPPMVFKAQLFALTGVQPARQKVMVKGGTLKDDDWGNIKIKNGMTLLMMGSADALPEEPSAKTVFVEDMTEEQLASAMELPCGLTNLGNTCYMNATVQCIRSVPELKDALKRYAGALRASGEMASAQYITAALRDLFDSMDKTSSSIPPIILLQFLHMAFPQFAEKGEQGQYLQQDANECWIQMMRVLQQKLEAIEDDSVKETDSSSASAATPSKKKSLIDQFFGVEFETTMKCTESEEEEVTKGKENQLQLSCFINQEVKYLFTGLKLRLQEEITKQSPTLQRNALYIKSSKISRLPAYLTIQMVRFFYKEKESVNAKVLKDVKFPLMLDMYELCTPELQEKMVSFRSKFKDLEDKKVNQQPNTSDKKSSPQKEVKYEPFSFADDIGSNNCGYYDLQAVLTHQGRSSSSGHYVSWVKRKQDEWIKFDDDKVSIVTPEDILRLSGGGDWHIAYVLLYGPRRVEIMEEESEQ
structure (smiles),measurement,setting,value
CCC[C@H](NC(=O)/C(C#N)=C/c1cccc(Br)n1)c1ccccc1 [WP1130],blocking MNV-1 or DUB activation associated with MNV-1 infection,"DUB activity; RAW 264.7, 1.25 μM",ineffective
same,DUB activity induced by MNV-1 infection (HA-UbVS),"DUB activity; RAW 264.7, anti-viral effective concentrations",block DUB activity
same,phosphorylation of Stat5,pStat5,loss of phosphorylation of Stat5
same,MCL-1 levels,Mcl1; Z138 cells,rapid decline
same,Mcl-1 levels,Mcl1; imatinib sensitive and resistant CML cells,reduced
same,log reduction at 5 µM,"Murine norovirus (MNV); RAW264.7, MNV, murine macrophages (RAW264.7 or bone marrow derived), 5 μM, 30 min pre-treatment, 8-12 hr, read-out: Log inhibition by plaque assay",~2
same,EC50,"Murine norovirus (MNV); RAW264.7, MNV-1, RAW 264.7, 12 hours postinfection, read-out: anti-viral EC50 activity",1.9 µM
same,block of virus infection,[1],not
same,HA-UbVS labeling of USP14,USP14,dose-dependent and time reduction in the labeling
same,HA-UbVS labeling of UCH37,UCH37,dose-dependent and time reduction in the labeling
same,Hsp70 protein levels,Hsp70,increased
same,Log inhibition by plaque assay,La Crosse virus (LaCV),2-2.5 log
same,Log inhibition by plaque assay,La Crosse virus (LaCV); listed as HWP1130,2.5 log
same,Log inhibition by plaque assay,[2],2 log
